Source: paper PMC11125181, “New Inhibitors of Bcr-Abl Based on 2,6,9-Trisubstituted Purine Scaffold Elicit Cytotoxicity in Chronic Myeloid Leukemia-Derived Cell Lines Sensitive and Resistant to TKIs” (Pharmaceutics, 2024)
Like-named read-outs stand apart in the source and are kept apart here.

Key:
recombinant Abl1 kinase [1] = target: T1, recombinant Abl1 kinase (Homo sapiens, UniProt P00519); test: Recombinant Abl1 kinase inhibition assay ([γ-33P]ATP, peptide substrate); format: biochemical
T1 construct: made in house
Description: The reactions were stopped by adding 5 µL of 3% aq. H3PO4. […] H3PO4, and air-dried.

KBM5 = test: Cytotoxicity assay (resazurin) on KBM5; format: cell-based; details: Homo sapiens, KBM5; 72 h, resazurin assay; read-out: GI50 KBM5
BV173 = test: Cytotoxicity assay (resazurin) on BV173; format: cell-based; details: Homo sapiens, BV-173, 72 h
Description: (§1) Human cell lines KCL22 and BV173 were obtained from the German Collection of Microorganisms and Cell Cultures, K562 and HEK-293T from the European Collection of Authenticated Cell Cultures. KBM5 cell line was kindly gifted by Vladimír Divoký. Development of KCL22 subclones B8 (T315I, 100%), F4 (E255K, 100%), and B10 (Y253H, 50%) was reported previously. All cell lines were cultivated in humidified incubator at 37 °C and in 5% CO2 according to the provider’s instructions in appropriate media supplemented with 10% fetal bovine serum, penicillin (100 IU/mL), streptomycin (100 µg/mL), and glutamine (4 mM).
(§2) Cytotoxicity was determined using resazurin, an indicator dye to measure oxidation-reduction reactions occurring in the mitochondria of live cells. The cells were seeded into 96-well plates and treated with compounds for 72 h (six different doses of each, in triplicate). After treatment, resazurin (Merck, Darmstadt, Germany) solution was added for 4 h, and the fluorescence of formed resorufin corresponding to live cell quantity was measured at 544 nm/590 nm (excitation/emission) using a Fluoroskan Ascent microplate reader (Labsystems, Vantaa, Finland).

K562 = test: Cytotoxicity assay (resazurin) on K562; format: cell-based; details: Homo sapiens, 72 h
Description: as §1, §2

HEK-293T = test: Cytotoxicity assay (resazurin) on non-neoplastic HEK-293T; format: cell-based; details: Homo sapiens, 72 h, non-neoplastic cells
Description: as §1, §2

[2] = tested on: KCL22 cells containing Bcr-Abl^WT; test: Cytotoxicity assay (resazurin) on KCL22 WT; format: cell-based, human
KCL22 B8 (T315I, 100%) = test: Cytotoxicity assay (resazurin) on KCL22 subclone B8; format: cell-based; details: Homo sapiens, KCL-22, read-out: GI50 KCL22 B8 T315I (100%), 72 h
Description: as §1, §2

KCL22 F4 (E255K, 100%) = test: Cytotoxicity assay (resazurin) on KCL22 subclone F4; format: cell-based; details: Homo sapiens, KCL-22, read-out: GI50 KCL22 F4 E255K (100%), 72 h
Description: as §1, §2

KCL22 B10 (Y253H, 50%) = test: Cytotoxicity assay (resazurin) on KCL22 subclone B10; format: cell-based; details: Homo sapiens, KCL-22, read-out: GI50 KCL22 B10 Y253H (50%), 72 h
Description: as §1, §2

recombinant Abl1 kinase [3] = target: T1, recombinant Abl1 kinase; details: Figure 2A, compounds with longer N-9 substituents; read-out: IC50 Bcr-Abl; cited from earlier work
[4] = tested on: KCL22 B8 cell line containing Bcr-Abl^T315I; test: Cell cycle flow cytometry, KCL22 B8; format: cell-based, human; details: 24 h treatment
Description: The cell lines were seeded into 96-well plates and then treated with compounds for 24 h. After treatment, the cells were directly stained by adding 5 × staining solution (17 mM trisodium citrate dihydrate, 0.5% IGEPAL® CA-630, 7.5 mM spermine tetrahydrochloride, 2.5 mM Tris; pH 7.6 containing 50 μg/mL propidium iodide). […] Cell cycle distribution was analyzed using ModFit LT 5.0.9 (Verity Software House, Augusta, ME, USA).

[5] = tested on: KCL22 models (WT, B8, F4, B10); test: Cytotoxicity across all KCL22 models; format: cell-based; details: Homo sapiens, KCL-22, read-out: GI50 in all KCL22 models (span over models)
Description: as §1, §2

[6] = from the IC50 of Table S1, read-out: pIC50 (Table S1) (converted)
[7] = recombinant Abl1, 1 µM ATP, at least three independent experiments, read-out: IC50 Abl
[8] = Homo sapiens, KCL-22, 72 h, read-out: GI50 KCL22 WT
[9] = as listed in Table S1, Bcr-Abl WT, read-out: IC50 (Table S1)

T1 sequence (P00519 whole entry): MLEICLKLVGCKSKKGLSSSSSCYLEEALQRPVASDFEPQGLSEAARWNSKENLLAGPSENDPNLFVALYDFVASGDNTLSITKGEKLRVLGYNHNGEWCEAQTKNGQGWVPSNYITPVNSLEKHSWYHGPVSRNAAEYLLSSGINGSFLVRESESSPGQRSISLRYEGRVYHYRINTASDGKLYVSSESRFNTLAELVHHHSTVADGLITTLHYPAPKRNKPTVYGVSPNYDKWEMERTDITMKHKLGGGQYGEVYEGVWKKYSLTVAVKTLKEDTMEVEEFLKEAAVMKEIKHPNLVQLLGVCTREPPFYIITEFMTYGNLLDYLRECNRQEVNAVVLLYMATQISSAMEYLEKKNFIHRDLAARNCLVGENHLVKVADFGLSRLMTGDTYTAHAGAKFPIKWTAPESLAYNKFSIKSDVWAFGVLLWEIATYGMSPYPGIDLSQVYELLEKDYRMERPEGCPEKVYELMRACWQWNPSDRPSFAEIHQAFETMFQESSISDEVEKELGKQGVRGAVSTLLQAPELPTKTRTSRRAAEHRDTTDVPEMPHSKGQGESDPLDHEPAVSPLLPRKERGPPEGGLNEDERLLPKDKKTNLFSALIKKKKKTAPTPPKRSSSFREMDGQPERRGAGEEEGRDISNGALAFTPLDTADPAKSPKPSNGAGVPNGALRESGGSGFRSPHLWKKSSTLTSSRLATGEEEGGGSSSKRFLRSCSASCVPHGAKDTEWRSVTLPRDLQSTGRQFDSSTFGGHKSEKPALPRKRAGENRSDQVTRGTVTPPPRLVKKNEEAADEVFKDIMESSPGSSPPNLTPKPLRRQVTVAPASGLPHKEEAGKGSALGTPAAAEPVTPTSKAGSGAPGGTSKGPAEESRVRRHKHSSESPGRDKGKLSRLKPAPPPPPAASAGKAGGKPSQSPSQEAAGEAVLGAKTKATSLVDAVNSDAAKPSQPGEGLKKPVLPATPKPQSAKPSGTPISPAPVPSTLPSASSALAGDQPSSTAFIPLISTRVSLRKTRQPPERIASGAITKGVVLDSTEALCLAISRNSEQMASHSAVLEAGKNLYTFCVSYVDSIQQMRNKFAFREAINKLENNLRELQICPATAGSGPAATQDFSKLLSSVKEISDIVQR

SMILES | IC50 (recombinant Abl1 kinase [1]; [6]) [nM] | IC50 (recombinant Abl1 kinase [1]; [7]) [nM] | GI50 (KBM5) [µM] | GI50 (BV173) [µM] | GI50 (K562) [µM] | GI50 (HEK-293T) [µM] | GI50 [2, 8] [µM] | GI50 (KCL22 B8 (T315I, 100%)) [µM] | GI50 (KCL22 F4 (E255K, 100%)) [µM] | GI50 (KCL22 B10 (Y253H, 50%)) [µM] | IC50 (recombinant Abl1 kinase [1]; [9]) [nM] | melting point [°C] | IC50 (recombinant Abl1 kinase [3]) [nM] | GI50 ([2]; 72 h, read-out: GI50 KCL22 WT) [µM] | GI50 ([2]; read-out: GI50 KCL22 WT, 72 h) [µM] | Effect on cell cycle distribution, KCL22 B8 (T315I) [4] | GI50 [5] [µM]
OCCN1CCN(c2ccc(Nc3nc(Nc4ccc(F)c(F)c4)c4ncn(CC5CC5)c4n3)cc2)CC1 [Compound 11c, 2-(4-(4-((9-(Cyclopropylmethyl)-6-((3,4-difluorophenyl)amino)-9H-purin-2-yl)amino)phenyl)piperazin-1-yl)ethan-1-ol] | 19 | 20 ± 1 | 2.1 ± 0.3 | 1.7 ± 0.1 | 0.9 ± 0.2 | 5 ± 0.9 | 2.9 | 6.4 ± 0.4 | 4.1 ± 0.2 | 4.1 ± 0.2 | – | – | – | – | – | – | –
CN1CCN(c2ccc(Nc3nc(N)c4ncn(CC5CC5)c4n3)cc2)CC1 [Compound 13a, 9-(Cyclopropylmethyl)-N^2-(4-(4-methylpiperazin-1-yl)phenyl)-9H-purine-2,6-diamine] | 3950 | 3960 ± 510 | > 100 | > 20 | > 100 | > 100 | > 100 | > 100 | > 100 | > 100 | 3950 | 133 to 134 | – | – | – | – | –
CCCCCCn1cnc2c(Nc3ccc(F)c(F)c3)nc(Nc3ccc(N4CCN(CCO)CC4)cc3)nc21 [Compound 11i, 2-(4-(4-((6-((3,4-Difluorophenyl)amino)-9-hexyl-9H-purin-2-yl)amino)phenyl)piperazin-1-yl)ethan-1-ol] | 1680 | 1680 ± 10 | 5.6 ± 0.2 | 4.8 ± 0.3 | 3.1 ± 0.6 | > 20 | > 20 | > 20 | > 20 | > 20 | – | 135.1 to 137.1 | – | – | – | – | –
CC(C)CCn1cnc2c(Nc3ccc(F)c(F)c3)nc(Nc3ccc(N4CCN(C)CC4)cc3)nc21 [IV] | – | – | – | – | – | – | – | – | – | – | – | – | 2280 | – | – | – | –
Cc1cn(-c2cc(NC(=O)c3ccc(C)c(Nc4nccc(-c5cccnc5)n4)c3)cc(C(F)(F)F)c2)cn1 [Nilotinib, reference compound] | – | – | 0.019 ± 0.009 | 0.003 | 0.025 ± 0.01 | > 10 | – | > 20 | 0.789 ± 0.081 | 1.4 ± 0.3 | – | – | – | 0.047 ± 0.008 | 0.019 | no effect | –
CC(C)CCn1cnc2c(Nc3ccccc3)nc(Nc3ccc(N4CCN(CCO)CC4)cc3)nc21 [Compound 11d, 2-(4-(4-((9-Isopentyl-6-(phenylamino)-9H-purin-2-yl)amino)phenyl)piperazin-1-yl)ethan-1-ol] | 1240 | 1240 ± 220 | 5.6 ± 0.4 | 3.6 ± 0.7 | 6.3 ± 0.7 | 5.7 ± 1.2 | 8.4 ± 0.3 | 7.8 ± 1.3 | 6.6 ± 0.6 | 7.8 ± 0.5 | – | 88.6 to 89.2 | – | – | – | – | –
CN1CCN(Cc2ccc(Nc3nc(Nc4ccc(F)c(F)c4)c4ncn(CC5CC5)c4n3)cc2)CC1 [Compound 7b, 9-(Cyclopropylmethyl)-N^6-(3,4-difluorophenyl)-N^2-(4-((4-methylpiperazin-1-yl)methyl)phenyl)-9H-purine-2,6-diamine] | 220 | 225 ± 42 | 4.2 ± 0.2 | 1.9 ± 0.1 | 1.4 ± 0.2 | 6.3 ± 1.2 | 8.5 ± 1.4 | 11.4 ± 3.2 | 10.1 ± 1.2 | 6.6 ± 0.2 | – | – | – | – | – | – | –
CN1CCN(c2ccc(Nc3nc(NCc4ccccc4)c4ncn(CC5CC5)c4n3)cc2)CC1 [Compound 13c, N^6-benzyl-9-(cyclopropylmethyl)-N^2-(4-(4-methylpiperazin-1-yl)phenyl)-9H-purine-2,6-diamine] | 839 | 845 ± 66 | > 20 | 11.9 ± 1.4 | 5.7 ± 0.6 | 16.7 ± 1.1 | > 20 | > 20 | > 20 | > 20 | 840 | 152 to 154 | – | – | – | – | –
CN1CCN(Cc2ccc(Nc3nc(Nc4cccc(F)c4)c4ncn(CC5CC5)c4n3)cc2)CC1 [Compound 7a, 9-(Cyclopropylmethyl)-N^6-(3-fluorophenyl)-N^2-(4-((4-methylpiperazin-1-yl)methyl)phenyl)-9H-purine-2,6-diamine] | 180 | 180 ± 68 | 4.4 ± 0.8 | 3.3 ± 1.6 | 1.5 ± 0.1 | 6.3 ± 0.7 | 8.1 ± 0.5 | 13.8 ± 2 | 11.1 ± 0.5 | 7.4 ± 0.6 | – | – | – | – | – | – | –
CN1CCN(c2ccc(Nc3nc(NC4CCCCC4)c4ncn(CC5CC5)c4n3)cc2)CC1 [Compound 13b, N^6-cyclohexyl-9-(cyclopropylmethyl)-N^2-(4-(4-methylpiperazin-1-yl)phenyl)-9H-purine-2,6-diamine] | 11000 | 11100 ± 3310 | > 20 | > 20 | 4.8 ± 0.3 | > 20 | > 20 | > 20 | > 20 | > 20 | 11100 | – | – | – | – | – | –
CC(C)CCn1cnc2c(Nc3cccc(F)c3)nc(Nc3ccc(N4CCN(CCO)CC4)cc3)nc21 [Compound 11e, 2-(4-(4-((6-((3-Fluorophenyl)amino)-9-isopentyl-9H-purin-2-yl)amino)phenyl)piperazin-1-yl)ethan-1-ol] | 130 | 131 ± 71 | 5 ± 0.1 | 3.8 ± 0.1 | 4.3 ± 0.2 | 4.7 ± 0.7 | 6.1 ± 0.1 | 6.9 ± 0.8 | 5.6 ± 0.5 | 6.9 ± 0.1 | 130 | – | – | – | – | resistant | 5.6 to 6.9
CC(C)CCn1cnc2c(Nc3ccc(F)c(F)c3)nc(Nc3ccc(N4CCN(CCO)CC4)cc3)nc21 [Compound 11f, 2-(4-(4-((6-((3,4-Difluorophenyl)amino)-9-isopentyl-9H-purin-2-yl)amino)phenyl)piperazin-1-yl)ethan-1-ol] | 1760 | 1760 ± 740 | 5.2 ± 0.1 | 4.5 ± 0.1 | 5.9 ± 0.6 | 5.2 ± 0.7 | 6.5 ± 0.2 | 7.2 ± 1 | 5.7 ± 0.1 | 7 ± 0.5 | – | – | – | – | – | – | –
